Results reported in ChEMBL document CHEMBL1153134, “Dammarane-type saponins from the flower buds of Panax ginseng and their effects on human leukemia cells” (Bioorg Med Chem Lett, 2010).
Activity calls are given as the source filed them. The calls are words filed in the database; no cut-off is given here.

Experiments:
HL-60 [1] = test: Cytotoxicity against human HL60 cells by MTT assay; assay type: functional, cell-based
HaCaT = test: Inhibition of ultraviolet-B-induced apoptosis in human HaCaT cells; assay type: functional, cell-based
HL-60 [2] = test: Induction of apoptosis in human HL60 cells assessed as increase of apoptotic bodies at IC50 concentration after 24 hrs using Hoechst 33342 staining by fluorescent microscopic analysis; assay type: functional, cell-based
HL-60 [3] = test: Induction of apoptosis in human HL60 cells assessed as DNA accumulation at sub-G1 phase at IC50 concentration after 24 hrs by flow cytometry; assay type: functional

Row | Structure (SMILES) | IC50 (HL-60 [1]) [µM] | Activity (HaCaT) | Activity (HL-60 [2]) | Activity (HL-60 [3]) [%]
1 | C=C(C)C(CC[C@](C)(O[C@@H]1O[C@H](CO[C@@H]2OC[C@H](O)[C@H](O)[C@H]2O)[C@@H](O)[C@H](O)[C@H]1O)[C@H]1CC[C@]2(C)[C@@H]1[C@H](O)C[C@@H]1[C@@]3(C)CC[C@H](O[C@@H]4O[C@H](CO[C@@H]5O[C@H](CO)[C@@H](O)[C@H](O)[C@H]5O)[C@@H](O)[C@H](O)[C@H]4O)C(C)(C)[C@@H]3[C@@H](O)C[C@]12C)OO (some centres undefined) [FLORALGINSENOSIDE TC] | 100 | – | – | –
2 | O=C1c2c(O)ccc(O)c2C(=O)c2c(NCCNCCO)ccc(NCCNCCO)c21 [MITOXANTRONE] | 6.8 | – | – | –
3 | CC(C)=CCC[C@](C)(O[C@@H]1O[C@H](CO)[C@@H](O)[C@H](O)[C@H]1O)[C@H]1CC[C@]2(C)[C@@H]1[C@H](O)C[C@@H]1[C@@]3(C)CC[C@H](O)C(C)(C)[C@@H]3[C@@H](O)C[C@]12C [GINSENOSIDE F1] | 23.2 | Active | Active | 19.2
4 | C=C(C)C(=O)CC[C@](C)(O[C@@H]1O[C@H](CO)[C@@H](O)[C@H](O)[C@H]1O)[C@H]1CC[C@]2(C)[C@@H]1[C@H](O)C[C@@H]1[C@@]3(C)CC[C@H](O)C(C)(C)[C@@H]3[C@@H](O)C[C@]12C [FLORALGINSENOSIDE TA] | 36.3 | – | Active | 29.8
5 | COC(CC[C@](C)(O[C@@H]1O[C@H](CO)[C@@H](O)[C@H](O)[C@H]1O)[C@H]1CC[C@]2(C)[C@@H]1[C@H](O)C[C@@H]1[C@@]3(C)CC[C@H](O)C(C)(C)[C@@H]3[C@@H](O)C[C@]12C)OC [FLORALGINSENOSIDE TB] | 100 | – | – | –
6 | CC(C)=CCC[C@](C)(O[C@@H]1O[C@H](CO[C@H]2O[C@H](CO)[C@@H](O)[C@@H]2O)[C@@H](O)[C@H](O)[C@H]1O)[C@H]1CC[C@]2(C)[C@@H]1[C@H](O)C[C@@H]1[C@@]3(C)CC[C@H](O)C(C)(C)[C@@H]3[C@@H](O)C[C@]12C [GINSENOSIDE F5] | 62.4 | – | Active | 21.4
7 | C=C(C)C(CC[C@](C)(O[C@@H]1O[C@H](COC2OC[C@H](O)[C@H](O)[C@H]2O)[C@@H](O)[C@H](O)[C@H]1O)[C@H]1CC[C@]2(C)[C@@H]1[C@H](O)C[C@@H]1[C@@]3(C)CC[C@H](O[C@@H]4O[C@H](COC5O[C@H](CO)[C@@H](O)[C@H](O)[C@H]5O)[C@@H](O)[C@H](O)[C@H]4O)C(C)(C)[C@@H]3[C@@H](O)C[C@]12C)OO (some centres undefined) [FLORALGINSENOSIDE TD] | 100 | – | – | –
